Experimental data: patent EP2118065B1, “Substituted 1H-benz[de]isoquinoline-1,3-diones” (priority 2007, dated 2008)

Tests used:
HL-60 cells = experiment: Annexin V-FITC/PI flow cytometric analysis of apoptosis; type: cell-based, human; conditions: 24 h
Procedure: Induction of apoptosis in vitro by Compound 3b and 3f was further determined in HL-60 cells by flow cytometric assay using an Annexin V-FITC Apoptosis Detection Kit (BD Biosciences Pharmingen, San Diego, USA). Camptothecin was included in the study for comparison. Exponentially growing HL-60 cells in complete RPMI-1640 media (100 µl of 5×10^6) were plated in six well plates. 10 µl of each Compound in DMSO (5 and 10 µM concentrations) was added to the wells followed by the addition of required media (total volume 1ml). Plates were incubated at 37°C for 24 h. The cells were centrifuged at room temperature at 1500 rpm for 5 min. The pellet was washed twice with cold PBS and was re-suspended in the binding buffer (1X, 100µl) provided in the Kit. The cells were stained with Annexin V-FITC (5 µl) and Propidium Iodide [PI] (5µl) and incubated for 15 min in the dark at 25°C. Next 400µl of binding buffer was added to each tube and analyzed on a FACScan flow cytometer (Becton Dickinson, Mountainview, CA) using Cell Quest software. Cells stained with both Annexin-V-FITC and PI, containing DMSO as vehicle was used as stained control. Cells that were annexin^+ /Pr [Lower right quadrant (LR)] and annexin^+/PI^+ [Upper right quadrant (UR)] were considered as early apoptotic and late apoptotic respectively.

S-180 = experiment: In vivo anticancer activity: increase in median survival time; design: species or system Swiss albino male mice; conditions: S-180, 7 injns.
caspase-6 = experiment: Caspase-6 colorimetric assay in MOLT-4 cells; type: cell-based, Human; conditions: 5 µg/ml, 24 hrs
Procedure: Caspase 3 activity was measured by using caspase-3 colorimetric Assay kit (R&D Systems USA). Briefly, MOLT-4 (∼2x10^6cells) were treated with Compound 3f, camptothecin (5µM) and staurosporine (1µM) for 24h, and then cell centrifuged and pellet was lysed using 50µL cell lysis buffer. Cell lysates were mixed with 10µL of dithiothreitol (DTT) and 50µL reaction buffer (2X) containing 5 µL DEVD-pNA, a caspase-3 substrate, and incubated upto 24 hr at 37°C. Additional controls were included in this assay containing no cell lysate without substrate Enzyme-catalyzed release of pNA was monitored using a microplate reader at 405 nm (Fig. 2). Likewise, Caspase 6 activity was also measured using caspase-6 colorimetric Assay kit (R&D Systems USA). However, the enzyme and enzyme substrate (VEID-pNA) were different (Fig. 3). Treatment of the cells with Compound 3f induced caspase-3/6 activities. […] (Fig 2).

Question: For O=C1c2cccc3c([N+](=O)[O-])ccc(c23)C(=O)N1CCCCl [Compound 3f, 6-Nitro-2-[3-(Chloropropyl)]-1H-benz[de]isoquinoline-1,3-dione], which “early apoptotic cells (Annexin V^+/PI^-), LR” value (HL-60 cells; 5 µM) is on record?
Answer: 16.4%

Question: What about the “late apoptotic cells (Annexin V^+/PI^+), UR” value (HL-60 cells; 5 µM) of the same molecule?
Answer: 31.5%

Question: And the “total apoptotic cells (apoptotic cell population)” value (HL-60 cells; 5 µM)?
Answer: 47.9%

Question: What about the “early apoptotic cells (Annexin V^+/PI^-), LR” value (HL-60 cells; 10 µM) of the same molecule?
Answer: 11.5%

Question: And the “late apoptotic cells (Annexin V^+/PI^+), UR” value (HL-60 cells; 10 µM)?
Answer: 81.0%

Question: And the “total apoptotic cells (apoptotic cell population)” value (HL-60 cells; 10 µM)?
Answer: 92.5%

Question: And the “MST” value (S-180; 30 mg/kg i.p., days 1-7)?
Answer: 25.0 days

Question: And the “MST” value (S-180; 60 mg/kg i.p., days 1-7)?
Answer: 29.0 days

Question: And the “MST” value (S-180; 60 mg/kg i.p., days 5-11)?
Answer: 21.0 days

Question: What about the Caspase-6 activity (caspase-6) of the same molecule?
Answer: maximum at 5 µg/ml for 24 hrs
